Results as given in patent US6914045B2, “Glycopeptide antibiotics” (Wyeth Holdings Corporation, priority 2001, dated 2005).

Key:
Test in all cases: in vitro antibacterial evaluation, MIC by broth dilution
Assay type in all cases: cell-based
Streptococcus sp. = details: broth dilution, 18 hours at 35° C.
Method: (§1) Methods for in vitro Antibacterial Evaluation (Table 1)
(§2) The minimum inhibitory concentration (MIC), the lowest concentration of the antibiotic which inhibits growth of the test organism, is determined by the broth dilution method using Muller-Hinton II […] (Baltimore Biological Laboratories) following the recommendations of the National Committee for Clinical Laboratory Standards [Methods for dilution antimicrobial susceptibility tests for bacteria that grow aerobically, approved standard M7-A2, National Committee for Clinical Laboratory Standards, Villanova, Pa.].
(§3) An inoculum level of 5×10^5 CFU/mL, and a range of antibiotic concentrations (64-0.06 μg/mL) is used. […] The test organisms include a spectrum of Gram-positive bacteria comprised of Staphylococcus sp., Streptococcus sp. and Enterococcus sp. These organisms include recent clinical isolates that are resistant to methicillin, penicillin and/or vancomycin.

Enterococcus sp. = details: broth dilution, 18 hours at 35° C.
Method: as §1, §2, §3

Staphylococcus sp. = details: broth dilution, 18 hours at 35° C.; for MIC Staphylococcus aureus (ATCC 29213): strain ATCC 29213; for MIC Staphylococcus aureus (GC 1131): strain GC 1131; for MIC Staphylococcus aureus (GC 3051): strain GC 3051; for MIC Staphylococcus aureus (GC 3053): strain GC 3053; for MIC Staphylococcus aureus (GC 4541): strain GC 4541; for MIC Staphylococcus aureus (GC 4542): strain GC 4542; for MIC Staphylococcus aureus-SMITH (GC 4543): strain GC 4543; for MIC Staphylococcus aureus (GC 4544): strain GC 4544; for MIC Staphylococcus aureus (GC 4545): strain GC 4545; for MIC Staphylococcus haemolyticus (GC 4546): strain GC 4546; for MIC Coagulase Negative Staphylococcus (GC 4547): strain GC 4547; for MIC Coagulase Negative Staphylococcus (GC 4548): strain GC 4548; for MIC Coagulase Negative Staphylococcus (GC 4549): strain GC 4549; for MIC Coagulase Negative Staphylococcus (GC 4551): strain GC 4551
Method: as §1, §2, §3

Escherichia coli = details: 18 hours at 35° C.

CC(C)=CCN1CC(C(O)C2NC(=O)C(C(O)C3CNC(=N)N3)NC(=O)C(Cc3ccc(OC4OC(CO)C(OC5OC6COC7(OC6C(O)C5O)C5CC6CC(C5)CC7C6)C(O)C4O)cc3)NC(=O)C(C(C)c3ccccc3)NC(=O)CNC(=O)C(CO)NC2=O)N(C2OC(CO)C(O)C(O)C2O)C1=N (centres unmarked) [Example 225]
4 µg/mL: MIC Enterococcus avium (GC 4558) (Enterococcus sp.) | MIC Enterococcus faecalis (GC 4553) (Enterococcus sp.) | MIC Enterococcus faecium (GC 2243) (Enterococcus sp.) | MIC Enterococcus faecium (GC 2243) (Enterococcus sp.; inoculum 5×10^5 CFU/mL, strain GC 2243) | MIC Enterococcus faecalis (GC 4553) (Enterococcus sp.; inoculum 5×10^5 CFU/mL, strain GC 4553) | MIC Enterococcus avium (GC 4558) (Enterococcus sp.; inoculum 5×10^5 CFU/mL, strain GC 4558) | MIC Staphylococcus aureus (ATCC 29213) (Staphylococcus sp.) | MIC Staphylococcus aureus (GC 3051) (Staphylococcus sp.) | MIC Staphylococcus aureus (GC 4541) (Staphylococcus sp.) | MIC Staphylococcus aureus-SMITH (GC 4543) (Staphylococcus sp.) | MIC Staphylococcus aureus (GC 4545) (Staphylococcus sp.) | MIC Staphylococcus haemolyticus (GC 4546) (Staphylococcus sp.) | MIC Coagulase Negative Staphylococcus (GC 4547) (Staphylococcus sp.) | MIC Coagulase Negative Staphylococcus (GC 4551) (Staphylococcus sp.) | MIC Escherichia coli (GC 4560) (Escherichia coli)
128 µg/mL: MIC Escherichia coli (ATCC 25922) (Escherichia coli) | MIC Escherichia coli (GC 4559) (Escherichia coli)
2 µg/mL: MIC Coagulase Negative Staphylococcus (GC 4548) (Staphylococcus sp.) | MIC Coagulase Negative Staphylococcus (GC 4549) (Staphylococcus sp.)
16 µg/mL: MIC Enterococcus faecalis (GC 2691) (Enterococcus sp.) | MIC Enterococcus faecalis (GC 3059) (Enterococcus sp.) | MIC Enterococcus faecalis (GC 4554) (Enterococcus sp.) | MIC Enterococcus faecalis (GC 6189) (Enterococcus sp.) | MIC Enterococcus faecalis (GC 2691) (Enterococcus sp.; inoculum 5×10^5 CFU/mL, strain GC 2691) | MIC Enterococcus faecalis (GC 3059) (Enterococcus sp.; inoculum 5×10^5 CFU/mL, strain GC 3059) | MIC Enterococcus faecalis (GC 4554) (Enterococcus sp.; inoculum 5×10^5 CFU/mL, strain GC 4554) | MIC Enterococcus faecalis (GC 6189) (Enterococcus sp.; inoculum 5×10^5 CFU/mL, strain GC 6189)
<0.12 µg/mL: MIC Streptococcus pneumoniae (GC 1894) (Streptococcus sp.) | MIC Streptococcus pneumoniae (GC 1894) (Streptococcus sp.; inoculum 5×10^5 CFU/mL, strain GC 1894)
0.5 µg/mL: MIC Streptococcus agalactiae (GC 4564) (Streptococcus sp.) | MIC Streptococcus pneumoniae (ATCC 6301) (Streptococcus sp.) | MIC Streptococcus pyogenes (GC 4563) (Streptococcus sp.) | MIC Streptococcus pneumoniae (ATCC 6301) (Streptococcus sp.; inoculum 5×10^5 CFU/mL, strain ATCC 6301) | MIC Streptococcus pyogenes (GC 4563) (Streptococcus sp.; inoculum 5×10^5 CFU/mL, strain GC 4563) | MIC Streptococcus agalactiae (GC 4564) (Streptococcus sp.; inoculum 5×10^5 CFU/mL, strain GC 4564)
8 µg/mL: MIC Enterococcus faecalis (ATCC 29212) (Enterococcus sp.) | MIC Enterococcus faecalis (GC 2242) (Enterococcus sp.) | MIC Enterococcus faecalis (GC 4552) (Enterococcus sp.) | MIC Enterococcus faecium (GC 4556) (Enterococcus sp.) | MIC Enterococcus faecalis (ATCC 29212) (Enterococcus sp.; inoculum 5×10^5 CFU/mL, strain ATCC 29212) | MIC Enterococcus faecalis (GC 2242) (Enterococcus sp.; inoculum 5×10^5 CFU/mL, strain GC 2242) | MIC Enterococcus faecalis (GC 4552) (Enterococcus sp.; inoculum 5×10^5 CFU/mL, strain GC 4552) | MIC Enterococcus faecium (GC 4556) (Enterococcus sp.; inoculum 5×10^5 CFU/mL, strain GC 4556) | MIC Staphylococcus aureus (GC 1131) (Staphylococcus sp.) | MIC Staphylococcus aureus (GC 3053) (Staphylococcus sp.) | MIC Staphylococcus aureus (GC 4542) (Staphylococcus sp.) | MIC Staphylococcus aureus (GC 4544) (Staphylococcus sp.)
1 µg/mL: MIC Streptococcus pneumoniae (GC 4565) (Streptococcus sp.) | MIC Streptococcus pneumoniae (GC 4565) (Streptococcus sp.; inoculum 5×10^5 CFU/mL, strain GC 4565) | MIC Enterococcus faecium (GC 4557) (Enterococcus sp.) | MIC Enterococcus faecium (GC 4557) (Enterococcus sp.; inoculum 5×10^5 CFU/mL, strain GC 4557)

CC(c1ccccc1)C1NC(=O)CNC(=O)C(CO)NC(=O)C(C(O)C2CNC(=N)N2C2OC(CO)C(O)C(O)C2O)NC(=O)C(C(O)C2CNC(=N)N2)NC(=O)C(Cc2ccc3oc(-c4cccc(F)c4)nc3c2)NC1=O (stereo not drawn) [Example 30, Cyclo[3-[2-(3-fluorophenyl)-1,3-benzoxazol-5-yl]alanyl-3-(2-iminoimidazolidin-4-yl)seryl-3-(3-hexopyranosyl-2-iminoimidazolidin-4-yl)serylserylglycyl-β-methylphenylalanyl]]
64 µg/mL: MIC Enterococcus faecalis (ATCC 29212) (Enterococcus sp.; strain ATCC 29212) | MIC Enterococcus faecalis (GC 3059) (Enterococcus sp.; strain GC 3059) | MIC Enterococcus faecalis (GC 4552) (Enterococcus sp.; strain GC 4552) | MIC Enterococcus faecalis (GC 4554) (Enterococcus sp.; strain GC 4554) | MIC Enterococcus faecium (GC 4556) (Enterococcus sp.; strain GC 4556)
8 µg/mL: MIC Streptococcus pneumoniae (ATCC 6301) (Streptococcus sp.; strain ATCC 6301) | MIC Streptococcus agalactiae (GC 4564) (Streptococcus sp.; strain GC 4564) | MIC Enterococcus faecium (GC 4557) (Enterococcus sp.; strain GC 4557) | MIC Staphylococcus aureus (ATCC 29213) (Staphylococcus sp.) | MIC Staphylococcus aureus (GC 1131) (Staphylococcus sp.) | MIC Staphylococcus aureus (GC 4542) (Staphylococcus sp.) | MIC Staphylococcus aureus-SMITH (GC 4543) (Staphylococcus sp.) | MIC Staphylococcus aureus (GC 4544) (Staphylococcus sp.) | MIC Staphylococcus aureus (GC 4545) (Staphylococcus sp.) | MIC Coagulase Negative Staphylococcus (GC 4547) (Staphylococcus sp.) | MIC Coagulase Negative Staphylococcus (GC 4551) (Staphylococcus sp.) | MIC Escherichia coli (GC 4560) (Escherichia coli; strain GC 4560, broth dilution)
4 µg/mL: MIC Streptococcus pyogenes (GC 4563) (Streptococcus sp.; strain GC 4563) | MIC Staphylococcus haemolyticus (GC 4546) (Staphylococcus sp.) | MIC Coagulase Negative Staphylococcus (GC 4548) (Staphylococcus sp.) | MIC Coagulase Negative Staphylococcus (GC 6257) (Staphylococcus sp.; strain GC 6257)
16 µg/mL: MIC Streptococcus pneumoniae (GC 1894) (Streptococcus sp.; strain GC 1894) | MIC Streptococcus pneumoniae (GC 4565) (Streptococcus sp.; strain GC 4565) | MIC Enterococcus faecalis (GC 4553) (Enterococcus sp.; strain GC 4553) | MIC Enterococcus avium (GC 4558) (Enterococcus sp.; strain GC 4558) | MIC Staphylococcus aureus (GC 3051) (Staphylococcus sp.) | MIC Staphylococcus aureus (GC 3053) (Staphylococcus sp.) | MIC Staphylococcus aureus (GC 4541) (Staphylococcus sp.) | MIC Coagulase Negative Staphylococcus (GC 4549) (Staphylococcus sp.)
32 µg/mL: MIC Enterococcus faecalis (GC 2242) (Enterococcus sp.; strain GC 2242) | MIC Enterococcus faecium (GC 2243) (Enterococcus sp.; strain GC 2243) | MIC Enterococcus faecalis (GC 2691) (Enterococcus sp.; strain GC 2691) | MIC Enterococcus faecalis (GC 6189) (Enterococcus sp.; strain GC 6189) | MIC Escherichia coli (ATCC 25922) (Escherichia coli; strain ATCC 25922, broth dilution) | MIC Escherichia coli (GC 4559) (Escherichia coli; strain GC 4559, broth dilution)
